According to patent US20250059196A1 (SHANGHAI HANSOH BIOMEDICAL CO., LTD., priority 2021, published 2025):
Where two headings read alike, the source gives them in different places.

Legend:
[1] = target: Recombinant human MALT1/MLT protein (Homo sapiens (Human), UniProt Q9UDY8); assay: Inhibitory effect on MALT1 enzyme activity (Ac-LRSR-AMC substrate, fluorescence 460 nm); type: biochemical; details: 10 nM FL MALT1, Ac-LRSR-AMC substrate, 50 min pre-incubation, 4 h reaction
Description: Ac-LRSR-AMC was used as the substrate to test the IC50 of the inhibitory activity of compounds on MALT1 enzyme activity at their Km concentration.
Ac-LRSR-AMC was used as the substrate which was digested by MALT1 to produce products, which produced fluorescence that could be detected at 460 nm. The highest concentration of the compound detected was 1000 nM, 3-fold dilution, a total of 11 concentrations (1000 nM-0.017 nM). The reaction system is 10 nM FL MALT1 protein, […] Ac-LRSR-AMC, 50 mM Tris pH 7.5, 0.6M Citrate, 1 mM DTT, 1 mM EDTA, 0.05% BSA and 1.5% DMSO. The compound and the enzyme were pre-incubated at room temperature for 50 min. The substrate was then added and the reaction was carried out for 4 h.
The original data (460 nm reading) was calculated according to the following formula to obtain the inhibition rate.
(§1) Log(inhibitor) vs. response—Variable slope (four parameters) in GraphPad Prism 6 was used to perform fitting equation analysis on compound concentration and corresponding inhibition rate, the curve was fit and compound IC50 value was obtained.
(§2) The fitting calculation equation is Y=Bottom+(Top−Bottom)/(1+10^((Log IC50−X)*HillSlope))

OCI-Ly3 cells = assay: Inhibition of proliferation of OCI-Ly3 cells (CellTiter-Glo); type: cell-based, human; details: 96 h incubation, read-out: Inhibition test of proliferation of OCI-Ly3 cells IC50
Description: The compound's inhibitory effect on the proliferation of TMD8 and OCI-Ly3 cells was evaluated through cell proliferation inhibition experiments.
The compound's inhibitory effect on the proliferation of TMD8 and OCI-Ly3 cells was detected by the CellTiter-Glo method. The highest concentration of the compound detected was 1000 nM, 3-fold dilution, a total of 9 concentrations (1000 nM-0.15 nM). After the cells were plated at an appropriate density, compounds were added the next day and incubated for 96 h before detection using the CellTiter-Glo Luminescent detection kit.
as §1, §2

[2] = Pharmacokinetics of oral administration in Balb/C mice; type: in vivo; details: male, mouse, po, 30 mg/kg, P.O., plasma; for AUC(0-t): read-out: AUC 0-t; for Cmax: read-out: Cmax; for Tmax: read-out: Tmax; for MRT: read-out: MRT
Description: Balb/C mice were used as test animals to study the pharmacokinetic behavior of the compound in the plasma of mice after oral administration at a dose of 30 mg/kg.
3 Balb/C mice (3/example), male, from Shanghai Jiesijie Experimental Animal Co., Ltd., animal production license number (SCXK (Shanghai) 2013-0006 N0.311620400001794).
3 Balb/C mice, male; p.o. respectively at a dose of 30 mg/kg and an administration volume of 10 mL/kg after the mice were fasted overnight.
Before and after administration of mice, 0.1 mL of blood was collected from the orbit at 0, 0.5, 1, 2, 4, 6, 8 and 24 h, and placed in EDTA-K2 test tubes, which was centrifuged at 6000 rpm at 4° C. for 6 min to separate plasma which was stored at −80° C.
• 1) 160 μL of acetonitrile was added to 40 μL of plasma sample for precipitation, and same was mixed and centrifuged at 3500×g for 5 to 20 min. • 2) 100 μL of the treated supernatant solution was taken and subjected to LC/MS/MS to analyze the concentrations of the test compounds.
• Liquid phase conditions: Shimadzu LC-20AD pump • Mass spectrometry conditions: AB Sciex API 4000 mass spectrometer • Chromatographic column: Phenomenex Gemiu 5 um C18 50×4.6 mm • Mobile phase: liquid A is 0.1% aqueous formic acid solution, liquid B is acetonitrile • flow rate: 0.8 mL/min • Elution time: 0-4.0 min, the eluent is as follows:
The main pharmacokinetic parameters were calculated using WinNonlin 8.2.

[3] = target: MALT1 protease activity in TMD8 cells (substrate BCL-10) (Homo sapiens (Human), UniProt Q9UDY8); assay: Intracellular MALT1 protease activity detection (BCL-10 ELISA in TMD8 cells); type: cell-based; details: undigested BCL-10 by ELISA, 30 min compound then 2 h stimulation cocktail, read-out: Bcl10 TMD8 IC50
MALT1 protease activity in TMD8 cells (substrate BCL-10), sequence (Q9UDY8 whole entry): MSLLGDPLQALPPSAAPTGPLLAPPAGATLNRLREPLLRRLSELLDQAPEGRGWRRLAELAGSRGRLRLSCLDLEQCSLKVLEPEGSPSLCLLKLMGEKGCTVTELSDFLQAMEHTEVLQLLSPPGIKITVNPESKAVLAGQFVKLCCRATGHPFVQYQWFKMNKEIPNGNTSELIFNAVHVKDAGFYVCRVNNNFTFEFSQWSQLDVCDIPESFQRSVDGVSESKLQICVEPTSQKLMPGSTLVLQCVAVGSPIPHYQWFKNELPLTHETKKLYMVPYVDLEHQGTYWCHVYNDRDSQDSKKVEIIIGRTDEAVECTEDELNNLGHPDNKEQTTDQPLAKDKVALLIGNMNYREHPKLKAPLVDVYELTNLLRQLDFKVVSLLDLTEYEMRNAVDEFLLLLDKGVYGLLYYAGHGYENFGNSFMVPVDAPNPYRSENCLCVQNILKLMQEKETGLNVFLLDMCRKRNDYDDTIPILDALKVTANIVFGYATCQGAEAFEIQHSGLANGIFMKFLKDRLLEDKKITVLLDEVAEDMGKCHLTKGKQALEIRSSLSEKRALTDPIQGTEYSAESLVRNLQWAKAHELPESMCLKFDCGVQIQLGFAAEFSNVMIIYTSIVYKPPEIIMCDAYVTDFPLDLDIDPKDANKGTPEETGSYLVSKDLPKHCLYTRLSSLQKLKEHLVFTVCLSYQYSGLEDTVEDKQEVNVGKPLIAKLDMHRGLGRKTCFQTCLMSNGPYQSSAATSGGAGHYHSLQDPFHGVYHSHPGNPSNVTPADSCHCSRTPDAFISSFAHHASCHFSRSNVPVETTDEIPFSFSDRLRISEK
Description: By detecting the digestion level of the substrate BCL-10 by MALT1 in TMD8 cells, the inhibitory effect of the compound on MALT1 protease activity in the cellular environment was tested.
The ELISA sandwich method was used to detect the content of undigested BCL-10 protein in cells and determine the inhibitory effect of compounds on intracellular MALT1 protease activity. The highest concentration of the compound detected was 10000 nM, 3-fold dilution, a total of 9 concentrations (10000 nM-1.5 nM). Cells were plated at an appropriate density. Compounds of corresponding concentrations were first added for action for 30 min, and then eBioscience cell stimulation cocktail was added to stimulate the cells for 2 h. Cell lysate was then collected. The cell lysate was added to the assay plate previously coated with recombinant BCL-10 antibody (Abcam, #Ab33905) and incubated at 4° C. overnight. The next day, BCL-10 detection antibody (Santacruz, #Sc-5273HRP) was added and incubated for 2 h, TMB substrate was used for color development for about 30 min, then the color development was terminated, and a microplate reader was used for detection.
2) Curve fitting: Log(inhibitor) vs. response—Variable slope (four parameters) in GraphPad Prism 6 was used to perform fitting equation analysis on compound concentration and corresponding inhibition rate, the curve was fit and compound IC50 value was obtained.
as §2

Recombinant human MALT1/MLT protein, sequence (Q9UDY8 whole entry): as above

| Compound | IC50 [1] | IC50 (OCI-Ly3 cells; Homo sapiens) | other results |
| --- | --- | --- | --- |
| O=C(Nc1ccc(-n2nccn2)c(C(F)(F)F)c1)c1cnn(-c2ccc3c4c(cccc24)C(=O)N3)c1C(F)(F)F [Example 50, N-(4-(2H-1,2,3-triazol-2-yl)-3-(trifluoromethyl)phenyl)-1-(2-oxo-1,2-dihydrobenzo[cd]indol-6-yl)-5-(trifluoromethyl)-1H-pyrazole-4-carboxamide] | 39 nM | 219 nM | AUC(0-t) [2]: 54400 ng·h/mL; Cmax [2]: 3020 ng/mL; Tmax [2]: 8 h |
| O=C(Nc1ccc(-n2cccn2)c(C(F)(F)F)c1)c1cnn(-c2cnc3c4c(cccc24)C(=O)N3)c1C(F)(F)F [Example 74, N-(4-(1H-pyrazol-1-yl)-3-(trifluoromethyl)phenyl)-1-(2-carbonyl-1,2-dihydropyrrolo[4,3,2-ij]isoquinolin-6-yl)-5-(trifluoromethyl)-1H-pyrazole-4-carboxamide] |  | 234 nM |  |
| O=C(Nc1ccnc(C(F)(F)F)c1)c1cnn(-c2ccc3c4c(cccc24)OC3)c1C(F)(F)F [Example 15, 1-(2H-naphthalene [1,8-bc]furan-5-yl)-5-trifluoromethyl-N-(2-trifluoromethyl-pyridin-4-yl)-1H-pyrazole-4-carboxamide] | 169 nM |  |  |
| O=C(Nc1cnc(-n2nccn2)c(C(F)(F)F)c1)c1cnn(-c2ccc3c4c(cccc24)C(=O)N3)c1C(F)F [Example 66, N-(6-(2H-1,2,3-triazol-2-yl)-5-trifluoromethylpyridin-3-yl)-5-difluoromethyl-1-(2-oxo-1,2-dihydrobenzo[cd]indol-6-yl)-1H-pyrazole-4-carboxamide] | 193 nM | 87 nM |  |
| O=C(Nc1cnc(-n2cccn2)c(Cl)c1)c1cnn(-c2ccc3c4c(cccc24)C(=O)N3)c1C(F)(F)F [Example 44] | 80 nM |  | IC50 (OCI-Ly3 cells): 149 nM |
| O=C(Nc1ccc(-n2cccn2)c(C(F)(F)F)c1)c1cnn(-c2ccc3c4c(cccc24)C(=O)N3)c1C(F)(F)F [Example 51, N-(4-(1H-pyrazol-1-yl)-3-(trifluoromethyl)phenyl)-1-(2-carbonyl-1,2-dihydrobenzo[cd]indol-6-yl)-5-(trifluoromethyl)-1H-pyrazole-4-carboxamide] |  | 83 nM |  |
| Cn1cnc(-c2ncc(NC(=O)c3cnn(-c4ccc5c6c(cccc46)C(=O)N5)c3C(F)(F)F)cc2Cl)n1 [Example 45] | 123 nM |  |  |
| O=C(Nc1ccc(-n2nccn2)c(C(F)(F)F)c1)c1cnn(-c2cnc3c4c(cccc24)C(=O)N3)c1C1CC1 [Example 83, N-(4-(2H-1,2,3-triazol-2-yl)-3-(trifluoromethyl)phenyl)-5-cyclopropyl-1-(2-oxo-1,2-dihydropyrrolo[4,3,2-ij]isoquinolin-6-yl)-1H-pyrazole-4-carboxamide] | 50 nM |  |  |
| N#Cc1ccnn1-c1ncc(NC(=O)c2cnn(-c3ccc4c5c(cccc35)C(=O)N4)c2C(F)(F)F)cc1C(F)(F)F [Example 32] |  | 266 nM |  |
| Cc1ncnn1-c1ncc(NC(=O)c2cnn(-c3ccc4c5c(cccc35)C(=O)N4)c2C(F)(F)F)cc1Cl [Example 47] | 123 nM |  |  |
| N#Cc1cc(-n2ncc(C(=O)Nc3ccnc(C(F)(F)F)c3)c2C(F)(F)F)c2cccc3c2c1NC3=O [Example 92, 1-(8-cyano-2-carbonyl-1,2-dihydrobenzo[cd]indol-6-yl)-5-(trifluoromethyl)-N-(2-(trifluoromethyl)pyridin-4-yl)-1H-pyrazole-4-carboxamide] |  | 128 nM |  |
| O=C(Nc1cnc(-n2cccn2)c(C(F)(F)F)c1)c1cnn(-c2ccc3c4c(cccc24)C(=O)N3)c1C(F)(F)F [Example 31, N-(6-(1H-pyrazol-1-yl)-5-(trifluoromethyl)pyridin-3-yl)-1-(2-carbonyl-1,2-dihydrobenzo[cd]indol-6-yl)-5-(trifluoromethyl)-1H-pyrazole-4-carboxamide] |  | 206 nM | IC50 [3]: 103 nM; AUC(0-inf) [2]: 197000 ng·h/mL; half-life [2]: 1.9 h; AUC(0-t) [2]: 197000 ng·h/mL; Cmax [2]: 25900 ng/mL; MRT [2]: 4.7 h; Tmax [2]: 2 h |
| O=C(Nc1cnc(-c2ncco2)c(C(F)(F)F)c1)c1cnn(-c2ccc3c4c(cccc24)C(=O)N3)c1C(F)(F)F [Example 34, N-(6-(oxazol-2-yl)-5-(trifluoromethyl)pyridin-3-yl)-1-(2-carbonyl-1,2-dihydrobenzo[cd]indol-6-yl)-5-(trifluoromethyl)-1H-pyrazole-4-carboxamide] |  | 212 nM |  |
| Cn1ccc(-c2ncc(NC(=O)c3cnn(-c4ccc5c6c(cccc46)C(=O)N5)c3C(F)(F)F)cc2C(F)(F)F)n1 [Example 37, N-(6-(1-methyl-1H-pyrazol-3-yl)-5-(trifluoromethyl)pyridin-3-yl)-1-(2-oxo-1,2-dihydrobenzo[cd]indol-6-yl)-5-(trifluoromethyl)-1H-pyrazole-4-carboxamide] | 48 nM |  |  |
| O=C(Nc1ccc(-n2nccn2)c(Cl)c1)c1cnn(-c2cnc3c4c(cccc24)C(=O)N3)c1C(F)(F)F [Example 75, N-(3-chloro-4-(2H-1,2,3-triazol-2-yl)phenyl)-1-(2-carbonyl-1,2-dihydropyrrolo[4,3,2-ij]isoquinolin-6-yl)-5-(trifluoromethyl)-1H-pyrazole-4-carboxamide] |  | 213 nM | IC50 [3]: 83 nM; AUC(0-inf) [2]: 12200 ng·h/mL; half-life [2]: 3 h; AUC(0-t) [2]: 12200 ng·h/mL; Cmax [2]: 1290 ng/mL; MRT [2]: 5.5 h; Tmax [2]: 2 h |
| Cc1nc(-c2ncc(NC(=O)c3cnn(-c4ccc5c6c(cccc46)C(=O)N5)c3C(F)(F)F)cc2C(F)(F)F)oc1C [Example 35, N-(6-(4,5-dimethyloxazol-2-yl)-5-(trifluoromethyl)pyridin-3-yl)-1-(2-carbonyl-1,2-dihydrobenzo[cd]indol-6-yl)-5-(trifluoromethyl)-1H-pyrazole-4-carboxamide] |  | 263 nM |  |
| O=C(Nc1cnc(-n2nccn2)c(Cl)c1)c1cnn(-c2ccc3c4c(cccc24)C(=O)N3)c1C(F)F [Example 67, N-(6-(2H-1,2,3-triazol-2-yl)-5-chloropyridin-3-yl)-5-difluoromethyl-1-(2-oxo-1,2-dihydrobenzo[cd]indol-6-yl)-1H-pyrazole-4-carboxamide] | 48 nM |  |  |
| O=C(Nc1cnc(-n2nccn2)c(C(F)(F)F)c1)c1cnn(-c2cnc3c4c(cccc24)C(=O)N3)c1C1CC1 [Example 78, N-(6-(2H-1,2,3-triazol-2-yl)-5-(trifluoromethyl)pyridin-3-yl)-5-cyclopropyl-1-(2-oxo-1,2-dihydropyrrolo[4,3,2-ij]isoquinolin-6-yl)-1H-pyrazole-4-carboxamide] |  |  | IC50 [3]: 67 nM |
